Data published in patent publication US20040235098A1, “Sulfotransferase sequence variants” (Mayo Foundation for Medical Education and Research, a …, priority 1998, published 2004).

Experiments:
SULT1A1*1 [1] = molecular target: T1, SULT1A1*1 (Homo sapiens, UniProt P50225); test: DCNP inhibition of recombinant SULT1A1*1 (COS-1 cell cytosol); assay type: biochemical; settings: 4 μM 4-nitrophenol, mean±SEM of nine determinations
T1 construct: made in house; host or cells: COS-1 cells, pCR3.1 vector, unpurified cytosol
Method: (§1) Res. Commun., 198:1119-1127 (1994).
(§2) Finally, sensitivity of the recombinant proteins to inhibition by DCNP was determined. Sixteen different concentrations of DCNP, ranging from 0.01 to 1000 μM, were tested with each recombinant allozyme.

SULT1A1*3 [2] = molecular target: T2, SULT1A1*3 (Homo sapiens, UniProt P50225); test: DCNP inhibition of recombinant SULT1A1*3 (COS-1 cell cytosol); assay type: biochemical; settings: 4 μM 4-nitrophenol, mean±SEM of nine determinations
T2 construct: made in house; host or cells: COS-1 cells, pCR3.1 vector, unpurified cytosol
Method: as §1, §2

SULT1A2*1 [3] = molecular target: T3, SULT1A2*1 (Homo sapiens, UniProt P50226); test: DCNP inhibition of recombinant SULT1A2*1 (COS-1 cell cytosol); assay type: biochemical; settings: 100 μM 4-nitrophenol, mean±SEM of nine determinations
T3 construct: made in house; host or cells: COS-1 cells, pCR3.1 vector, unpurified cytosol
Method: as §1, §2

SULT1A2*2 [4] = molecular target: T4, SULT1A2*2 (Homo sapiens, UniProt P50226, I7T/N235T); test: DCNP inhibition of recombinant SULT1A2*2 (COS-1 cell cytosol); assay type: biochemical; settings: 3000 μM 4-nitrophenol, mean±SEM of nine determinations
T4 construct: made in house; host or cells: COS-1 cells, pCR3.1 vector, unpurified cytosol
Method: as §1, §2

SULT1A2*3 [5] = molecular target: T5, SULT1A2*3 (Homo sapiens, UniProt P50226, P19L); test: DCNP inhibition of recombinant SULT1A2*3 (COS-1 cell cytosol); assay type: biochemical; settings: 50 μM 4-nitrophenol, mean±SEM of nine determinations
T5 construct: made in house; host or cells: COS-1 cells, pCR3.1 vector, unpurified cytosol
Method: as §1, §2

SULT1A3 [6] = molecular target: T6, SULT1A3 (Homo sapiens, UniProt P0DMM9); test: DCNP inhibition of recombinant SULT1A3 (COS-1 cell cytosol); assay type: biochemical; settings: 3000 μM 4-nitrophenol, mean±SEM of nine determinations
T6 construct: made in house; host or cells: COS-1 cells, pCR3.1 vector, unpurified cytosol
Method: as §1, §2

TS PST = settings: thermostable phenol-preferring form; cited from earlier work
TL PST = TL PST (Homo sapiens, UniProt P0DMM9); settings: thermolabile monoamine-preferring form; cited from earlier work
SULT1A1*1 [7] = molecular target: T1, SULT1A1*1; test: Substrate kinetics of recombinant SULT1A1*1; assay type: biochemical; settings: 4 μM 4-nitrophenol, mean±SEM of nine, read-out: Apparent Km PAPS
Method: as §1
(§3) Expression constructs for each of the common (frequencies≧1%) allozymes for SULT1A1 and SULT1A2 were used to transfect COS-1 cells. Selected biochemical and physical properties of the expressed enzymes were then determined. Those properties included apparent Km values for the two cosubstrates for the enzyme reaction (4-nitrophenol and PAPS); thermal stability; and sensitivity to inhibition by DCNP. The substrate kinetic experiments were performed in two steps. Initially a wide range of concentrations of 4-nitrophenol that varied over at least three orders of magnitude was tested, followed by detailed study of concentrations close to the apparent Km value for that allozyme. […] Data from these experiments were then used to construct double inverse plots that were used to calculate apparent Km values (Table 5).

SULT1A1*2 = SULT1A1*2 (Homo sapiens, UniProt P50225, R213H/V223M); test: Substrate kinetics of recombinant SULT1A1*2; assay type: biochemical; settings: 4 μM 4-nitrophenol, mean±SEM of nine, read-out: Apparent Km PAPS
Method: as §1, §3

SULT1A1*3 [8] = molecular target: T2, SULT1A1*3; test: Substrate kinetics of recombinant SULT1A1*3; assay type: biochemical; settings: 4 μM 4-nitrophenol, mean±SEM of nine, read-out: Apparent Km PAPS
Method: as §1, §3

SULT1A2*1 [9] = molecular target: T3, SULT1A2*1; test: Substrate kinetics of recombinant SULT1A2*1; assay type: biochemical; settings: 100 μM 4-nitrophenol, mean±SEM of nine
Method: as §1, §3

SULT1A2*2 [10] = molecular target: T4, SULT1A2*2; test: Substrate kinetics of recombinant SULT1A2*2; assay type: biochemical; settings: mean±SEM of nine
Method: as §1, §3

SULT1A2*3 [11] = molecular target: T5, SULT1A2*3; test: Substrate kinetics of recombinant SULT1A2*3; assay type: biochemical; settings: 50 μM 4-nitrophenol, mean±SEM of nine, read-out: Apparent Km PAPS
Method: as §1, §3

SULT1A3 [12] = molecular target: T6, SULT1A3; test: Substrate kinetics of recombinant SULT1A3; assay type: biochemical; settings: 3.9 to 3000 μM 4-nitrophenol, mean±SEM of nine
SULT1A2 = settings: 100 μM 4-nitrophenol; cytosol from six pooled liver samples; three attempts
Method: Human hepatic “surgical waste” tissue was obtained from 61 patients undergoing clinically-indicated hepatectomies or open hepatic biopsies and was stored at −80° C. These frozen hepatic tissue samples were homogenized in 5 mM potassium phosphate buffer, pH 6.5, and centrifuged at 100,000×g for 1 hr to obtain high-speed supernatant (HSS) cytosolic preparations. […] All tissue samples were obtained under guidelines approved by the Mayo Clinic Institutional Review Board.
Unless otherwise stated, concentrations of 4-nitrophenol and PAPS were 4 μM and 0.4 μM, respectively. […] Enzyme activity was expressed as nmoles of sulfate conjugated product formed per hr of incubation. Protein concentrations were measured by the dye-binding method of Bradford with bovine serum albumin (BSA) as a standard.
Therefore, 100 μM 4-nitrophenol was used as a substrate with cytosol from six pooled liver samples in an attempt to measure SULT1A2 activity.

T4 sequence (P50226 whole entry I7T/N235T): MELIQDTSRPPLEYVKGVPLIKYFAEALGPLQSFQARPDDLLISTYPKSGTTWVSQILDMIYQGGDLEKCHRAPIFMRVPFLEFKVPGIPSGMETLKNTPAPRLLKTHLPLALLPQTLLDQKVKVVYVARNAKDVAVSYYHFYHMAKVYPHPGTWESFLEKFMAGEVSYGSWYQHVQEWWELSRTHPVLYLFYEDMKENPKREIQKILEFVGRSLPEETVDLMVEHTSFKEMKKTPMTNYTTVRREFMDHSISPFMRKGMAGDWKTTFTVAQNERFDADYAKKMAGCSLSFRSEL
T5 sequence (P50226 whole entry P19L): as the sequence (P50226 whole entry I7T/N235T) above, with T7I, P19L, T235N counted along it
T6 sequence (P0DMM9 whole entry): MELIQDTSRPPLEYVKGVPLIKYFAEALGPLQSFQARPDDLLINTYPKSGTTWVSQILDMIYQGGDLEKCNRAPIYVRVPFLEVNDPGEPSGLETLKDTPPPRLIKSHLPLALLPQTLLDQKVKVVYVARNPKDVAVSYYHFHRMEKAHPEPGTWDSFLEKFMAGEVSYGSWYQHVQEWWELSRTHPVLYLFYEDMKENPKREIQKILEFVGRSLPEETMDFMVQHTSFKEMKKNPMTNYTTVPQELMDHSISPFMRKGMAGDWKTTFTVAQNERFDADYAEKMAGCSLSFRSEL
Chain of TL PST (P0DMM9 whole entry): as above
Chain of SULT1A1*2 (P50225 whole entry R213H/V223M): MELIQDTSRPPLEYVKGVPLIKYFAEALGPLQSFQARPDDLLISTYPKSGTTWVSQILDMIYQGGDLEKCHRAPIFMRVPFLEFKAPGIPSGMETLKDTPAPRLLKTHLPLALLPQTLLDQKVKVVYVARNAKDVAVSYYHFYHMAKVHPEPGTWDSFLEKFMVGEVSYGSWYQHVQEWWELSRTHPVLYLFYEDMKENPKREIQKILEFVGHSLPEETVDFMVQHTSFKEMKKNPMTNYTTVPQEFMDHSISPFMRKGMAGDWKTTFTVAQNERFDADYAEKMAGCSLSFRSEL

With `O=[N+]([O-])c1cc(Cl)c(O)c(Cl)c1` [DCNP, 2,6-dichloro4-nitrophenol] the IC50 (SULT1A1*1 [1]) was 1.44 ± 0.11 µM, the IC50 (SULT1A1*3 [2]) was 1.32 ± 0.27 µM and the IC50 (SULT1A2*1 [3]) was 6.94 ± 0.55 µM. For the same compound, the IC50 (SULT1A2*2 [4]) was 44.4 ± 1.5 µM, the “DCNP Inhibition IC50” value (SULT1A2*3 [5]) was “most” and the IC50 (SULT1A2*3 [5]) was 0.97 ± 0.001 µM. For the same compound, the “DCNP Inhibition IC50” value (SULT1A3 [6]) was “least sensitive to inhibition”, the IC50 (SULT1A3 [6]) was 86.9 ± 6 µM and the “sensitivity to inhibition by DCNP” value (TS PST) was “sensitive to inhibition”. For the same compound, the “sensitivity to inhibition by DCNP” value (TL PST) was “relatively insensitive”.

`Nc1ncnc2c1ncn2[C@@H]1O[C@H](COP(=O)(O)OS(=O)(=O)O)[C@@H](OP(=O)(O)O)[C@H]1O` [PAPS, 3′-phosphoadenosine-5′-phosphosulfate] gave a Km (SULT1A1*1 [7]) of 1.21 ± 0.02 µM, a Km (SULT1A1*2) of 0.98 ± 0.03 µM and a Km (SULT1A1*3 [8]) of 0.17 ± 0.02 µM. The “Apparent Km PAPS” value (SULT1A2*1 [9]) was “approximately an order of magnitude lower”, the Km (SULT1A2*1 [9]; read-out: Apparent Km PAPS) was 0.05 ± 0.001 µM and the Km (SULT1A2*2 [10]; 3000 μM 4-nitrophenol, read-out: Apparent Km PAPS) was 0.5 ± 0.001 µM. The Km (SULT1A2*3 [11]) was 0.28 ± 0.006 µM.

In the case of `O=[N+]([O-])c1ccc(O)cc1` [4-nitrophenol], the “Apparent Km 4-Nitrophenol” value (SULT1A2*2 [10]; 1.0 to 1000 μM 4-nitrophenol) is reported as “very high”, the “Apparent Km 4-Nitrophenol” value (SULT1A3 [12]) is reported as “very high” and the “SULT1A2 activity (sulfation of 4-nitrophenol)” value (SULT1A2) is reported as “no activity was detected”.
